These results are taken from patent publication US11963972B2, “Antiviral agents and nucleoside analogs for treatment of Zika virus” (priority 2016, dated 2024).

In data set [1] the test system is ZIKV Puerto Rico strain (PRVABC59). As to the kind of experiment: ZIKV CPE MTS assay in Huh7 cells. The class given is cell-based, Zika virus. As to conditions: for IC50: Huh-7, 120 h, read-out: ZIKV CPE MTS Assay IC50 (μM) Huh7. The method, then: (§1) […] Cell cytopathic effect (CPE) MTS assay (CellTiter 96@k) AQueous One Solution Cell Proliferation Promega kit, Promega) was measured four (Vero) or five (U251 or Huh7) days after compound addition to determine the levels of replication inhibition.

Data set [2] can be described thus: Cytotoxicity MTT assay in HepG2 cells. The following applies: human. The class given is cell-based. The text has this:
(§2) The toxicity of the compounds can be assessed in Vero, human PBM, CEM (human lymphoblastoid), and can be assessed in MT-2, and HepG2 cells, as described previously (see Schinazi R. F., Sommadossi J.-P., Saalmann V., Cannon D. L., Xie M.-Y., Hart G. C., Smith G. A. & Hahn E. F. Antimicrob. Agents Chemother. 1990, 34, 1061-67). Cycloheximide can be included as positive cytotoxic control, and untreated cells exposed to solvent can be included as negative controls. The cytotoxicity (IC50) can be obtained from the concentration-response curve using the median effective method described previously (see Chou T.-C. & Talalay P. Adv. Enzyme Regul. 1984, 22, 27-55; Belen'kii M. S. & Schinazi R. F. Antiviral Res. 1994, 25, 1-11).

Data set [3] can be described thus: Cytotoxicity MTT assay in PBM cells. The class given is cell-based. The following applies: human. The method, then: v) Cellular Toxicity Assays: Nucleoside and nucleoside monophosphate prodrugs can be evaluated for their potential toxic effects on P4/R5 cells, MT-2 cells and uninfected PHA-stimulated human PBM cell. Log-phase P4/R5, MT-2, and PHA-stimulated human PBM cells can be seeded at 5×10^3 to 5×10^4 cells/well in 96-well cell culture plates containing 10-fold serial dilutions of the test drug. The cultures can be incubated for 2-4 days, after which 3-(4,5-dimethylthiazol-2-yl)-2,5-diphenyltetrazolium bromide (MTT) dye solution (Promega, Madison, WI) can be added to each well and incubated overnight. The reaction can be stopped with stop solubilization solution (Promega, Madison, WI) and plates can be read at a wavelength of 570 nm. The median 50% cytotoxic concentration (CC50) can be determined from the concentration-response curve using the median effect method.
as §2

Data set [4] is described as follows: Cytotoxicity MTT assay in CEM cells. The class given is cell-based. As to conditions: human.
From the text: as §2

Data set [5] relates to ZIKV Puerto Rico strain (PRVABC59). As to the kind of experiment: ZIKV CPE MTS assay in Vero cells. The class given is cell-based, Zika virus. The following applies: for IC50: 96 h, read-out: ZIKV CPE MTS Assay IC50 (μM) Vero. As to the method: as §1
A short description of data set [6]: Cytotoxicity MTT assay in Vero cells. The class given is cell-based. The following applies: African green monkey.
From the text: as §2

Data set [7] concerns ZIKV Puerto Rico strain (PRVABC59). The data set is described as follows: ZIKV CPE MTS assay in human neuroblastoma (U251) cells. The class given is cell-based, Zika virus. The following applies: for IC50: U-251, 120 h, read-out: ZIKV CPE MTS Assay IC50 (μM) H251; for EC50: U251 cells. As to the method:
as §1

Data set [8] in a line: Cytotoxicity MTT assay in Huh7 cells. It counts as cell-based. As to conditions: human.
The subject of a further data set is ZIKV PRVABC59. The data set is described as follows: Combination of SSZ with control 1, ZIKV CPE assay in Vero cells. The class given is cell-based, Zika virus. As to conditions: Vero cells pretreated 18-20 h, MOI 0.01 PRVABC59, read-out: EC50, drug alone, ZIKV CPE assay. As to the method: Vero cells were pretreated for 18-20 h with SSZ (fixed concentrations of 300, 200 or 100 μM) plus control 1 (10, 5, 2.5 and 0.25 μM) prior to infection with MOI 0.01 PRVABC59 (drugs were replenished right after infection).
Drug-drug interactions were analyzed by using CalcuSyn (Biosoft, Ferguson, MO) computer software: 300, 200, and 100 μM SSZ in the presence of 10, 5, 2.5, and 0.25 μM of control 1 was evaluated versus each drug alone for each drug concentration. The interpretation of Combination Index (CI) values are as follows: Antagonism: CI value>1.0, Additive effect: CI value=1.0; Synergism: CI value=<1.0.

In data set [9] the test system is baby hamster kidney (BHK) cells.
Another data set concerns Norovirus. As to the kind of experiment: Norovirus activity test. The class given is cell-based.
In a further data set the test system is HCV. As to the kind of experiment: HCV activity test. The class given is cell-based.
The next data set deals with WNV replicon. As to the kind of experiment: WNV replicon model. The class given is cell-based. As to conditions: West Nile virus.
Data set [10] concerns DENV-2. The data set is described as follows: DENV-2 Huh-7 infectious assay. The class given is cell-based. As to conditions: Dengue virus, DENV2, Huh-7.
Data set [11] concerns DENV-2. The data set is described as follows: DENV-2 VERO infectious assay. The following applies: for EC50: Dengue virus, DENV2, Vero. The class given is cell-based, Dengue virus.
The next data set relates to DENV-2 replicon. As to the kind of experiment: DENV-2 replicon model. It counts as cell-based. The following applies: Dengue virus, DENV2.
The conditions of data set [12]: human, in vivo; cited from earlier work.
The mark [13] stands for this setting: Zika virus, Vero cells, MOI=0.01, four days.

Where two headings read alike, the source gives them in different places.

Consider `CC1(O)C(O)[C@@H](CO)O[C@H]1n1ccc(N)nc1=O` (some centres unmarked), for which the IC50 in data set [1] (Zika virus, Huh7 cells, MOI=0.5, five days) was 9.3 µM; in [2] it was 59.1 µM; in [3] (PHA-stimulated human PBM cells) it was 65.4 µM; in [4] (CEM lymphoblastoid cells), 84.3 µM; in data set [5] (setting [13]), 9.2 µM; in data set [6] it was greater than 100 µM. For the same molecule, the IC50 in [7] (Zika virus, H251 cells, MOI=0.5, five days) is 16.3 µM; in data set [8] it was greater than 100 µM.
Regarding `CCOC(=O)[C@H](C)NP(=O)(OC[C@H]1O[C@@H](n2cnc3c(N)nc(N=[N+]=[N-])nc32)C(C)(O)C1O)Oc1ccccc1` (some centres unmarked), the IC50 in data set [1] (Zika virus) was less than 20 µM; in data set [2] it was greater than 100 µM; in data set [3] (PBM cells), greater than 100 µM; in [4], greater than 100 µM; in data set [5] (Zika virus, Vero) it was greater than 20 µM; in data set [6], greater than 100 µM. Also, the IC50 in data set [7] (Zika virus) is greater than 20 µM; in data set [8], greater than 100 µM. The inhibition at 20 µM in [1] (Zika virus, Huh-7, read-out: ZIKV CPE MTS Assay percentage of inhibition at the concentration, Huh7) is 88%; in data set [5] (Zika virus, Vero, read-out: ZIKV CPE MTS Assay percentage of inhibition at the concentration, Vero), 3%; in data set [7] (Zika virus, U-251, read-out: ZIKV CPE MTS Assay percentage of inhibition at the concentration, H251) it was 34%.
On to `CC1(F)C(O)[C@@H](CO)O[C@H]1n1ccc(N)nc1=O` (some centres unmarked), for which the IC50 was greater than 100 µM in [2]; greater than 100 µM in [3] (PHA-stimulated human PBM cells); greater than 100 µM in [4] (CEM lymphoblastoid cells); no more than 10 µM in data set [5] (setting [13]); greater than 100 µM in data set [6]. For the same molecule, the inhibition at 10 µM in data set [5] (Zika virus, Vero cells, at 10 μM, read-out: ZIKV CPE MTS Assay percentage of inhibition at the concentration, Vero) was determined as 65%.
For `C[C@@]1(O)[C@H](O)[C@@H](CO)O[C@H]1n1cc(F)c2cnc(N)nc21` [Control 1, beta-D-2′-C—Me-2-amino-7-fluoro-7-deazapurine ribose, reference compound], the EC50 in data set [1] (Huh7 cells, no pretreat, read-out: ZIKV-CPE MTS Assay EC50, μM, Huh7, No pretreat) was found to be 0.4 µM; in [1] (Huh7 cells, pretreated 18-20 h before infection, read-out: ZIKV-CPE MTS Assay EC50, μM, Huh7, Pretreat), 0.5 µM; in the data set with ZIKV PRVABC59, 5.4 µM; in [5] (Vero cells, no pretreat, read-out: ZIKV-CPE MTS Assay EC50, μM, Vero, No pretreat), 0.8 µM; in data set [5] (Vero cells, pretreated 18-20 h before infection, read-out: ZIKV-CPE MTS Assay EC50, μM, Vero, Pretreat), 0.4 µM; in data set [7] (no pretreat, read-out: ZIKV-CPE MTS Assay EC50, μM, U251, No pretreat), 3.5 µM. Moreover, in data set [7] (pretreated 18-20 h before infection, read-out: ZIKV-CPE MTS Assay EC50, μM, U251, Pretreat), the 50% effective concentration (EC50) was determined as 4 µM.
In the case of `O=C(O)c1cc(/N=N/c2ccc(S(=O)(=O)Nc3ccccn3)cc2)ccc1O` [Sulfasalazine], in data set [9], the “Toxicity in baby hamster kidney (BHK) cells” value is greater than 100 µM. Besides, the “toxicity in culture (no toxicity up to)” value in [9] was greater than 100 µM. In the data set on Norovirus, the “effect on Norovirus (no effect observed up to)” value was greater than 100 µM. Moreover, the concentration giving a half-maximal response (EC50) in data set [1] (Zika virus, Huh-7, Huh7 cells, no pretreat, read-out: ZIKV-CPE MTS Assay EC50, μM, Huh7, No pretreat) came to 255 µM; in data set [1] (Zika virus, Huh-7, Huh7 cells, pretreated 18-20 h before infection, read-out: ZIKV-CPE MTS Assay EC50, μM, Huh7, Pretreat) it was 341 µM; with ZIKV PRVABC59 (Zika virus) it was 210 µM; in the data set on WNV replicon, 9.9 µM; in data set [5] (Zika virus, Vero cells, no pretreat, read-out: ZIKV-CPE MTS Assay EC50, μM, Vero, No pretreat), 181 µM; in [5] (Zika virus, Vero cells, pretreated 18-20 h before infection, read-out: ZIKV-CPE MTS Assay EC50, μM, Vero, Pretreat) it was 273 µM. For the same molecule, the EC50 in the data set with DENV-2 [10] was 22.2 µM; with DENV-2 [11] it was greater than 100 µM; with DENV-2 replicon, 8.3 µM; in [7] (Zika virus, U-251, no pretreat, read-out: ZIKV-CPE MTS Assay EC50, μM, U251, No pretreat) it was 385 µM; in data set [7] (Zika virus, U-251, pretreated 18-20 h before infection, read-out: ZIKV-CPE MTS Assay EC50, μM, U251, Pretreat), 318 µM. Also, the “effect on HCV (no effect observed up to)” value in the data set with HCV is greater than 100 µM. Besides, the figures for the 90% effect concentration (EC90) in the data set on WNV replicon and with DENV-2 [10] were 78.3 µM and 61.9 µM, respectively. Further, the figures for the inhibition at 30 µM in the data set with WNV replicon (at 30 μM) and with DENV-2 replicon (at 30 μM) were 78.5% and 77.4%, respectively. For the same molecule, the “% inhibition, DENV-2 in Vero cells” value in the data set with DENV-2 [11] (Vero, concentration not given) is on record as less than 1%. In data set [12], the “doses taken without side effects” value is recorded as “up to 4 g/day”. Besides, in data set [12], the safety in pregnancy entry is listed as “safe for a person to take while pregnant”.
Take `CC1(O)C(O)[C@@H](CO)O[C@H]1n1cc(F)c2c(N)ncnc21` (some centres unmarked) [drawing 83]: the results for the EC50 in the data set with DENV-2 [10] and in the data set on DENV-2 [11] were 2.6 µM and 8.6 µM, respectively.
